Test [1] relates to human G361 melanocyte cell line. The test is described as follows: cAMP synthesis stimulation assay (competitive ELISA). Format: cell-based. The settings on record: G361 cells, normalized to average basal cAMP values. The procedure:
cAMP synthesis stimulation was assessed in the human G361 melanocyte cell line in the presence of the peptides of the invention. The cells were seeded (10^6 cells/plate 25 cm^2) and incubated for 24 hours in McCoy's complete medium, after which the peptides were added to 10 μM and were incubated for another 24 hours. 40 μM forskolin was used as a positive control. The cells were centrifuged and the supernatants were collected, and the cAMP levels were determined by carrying out a competitive ELISA assay following the protocols of the commercial kit (Cayman, Ref 0.581001)
(ELISA stands for enzyme-linked immunosorbent assay.)

Test [2] shares this test system. The test is described as follows: Melanogenesis stimulation (melanin extracted, absorbance at 470 nm). Particulars: 4 days, G361 cells, normalized to number of cells. Format: cell-based. The protocol: A human G361 melanocyte cell line was incubated for 4 days on a 12-well plate in presence of the peptide at various concentrations, after which the cells were trypsinized, the melanin was extracted and was quantified by measuring the absorbance at 470 nm in a spectrophotometer. The values obtained were normalized with regards to the number of cells. The concentration of melanin was determined in pg/cell using a standard regression analysis obtained with synthetic melanin at known concentrations.

In test [1] (positive control 40 μM), `C=C[C@@]1(C)CC(=O)[C@]2(O)[C@@]3(C)[C@@H](O)CCC(C)(C)[C@@H]3[C@H](O)[C@H](OC(C)=O)[C@@]2(C)O1` [Forskolin, reference compound] displayed a cAMP increase of 117%.

Consider Palm-L-Tyr-L-Tyr-L-Met-NH2, for which the cAMP increase in test [1] (peptide 10 μM, 24 hours) was 57%. Besides, the figures for the Melanin synthesis stimulation in test [2] (10 μM), in test [2] (50 μM) and in test [2] (100 μM) were 64%, 79% and 138%, respectively.

The values are drawn from patent US20170101438A1, “COSMETIC OR PHARMACEUTICAL METHODS FOR THE TREATMENT AND/OR CARE OF THE SKIN AND/OR HAIR USING TRIPEPTIDES CAPABLE OF STIMULATING CYCLIC ADENOSINE MONOPHOSPHATE SYNTHESIS” (Lipotec, S.A., priority 2009, published 2017).
